In the NIST ThermoML archive (doi:10.1021/je900091b):

Experiments:
[1] = Liquid
[2] = xn = mol fraction of the nth substance listed; conditions: Liquid, x2 = 0

CCCCn1cc[n+](C)c1.F[P-](F)(F)(F)(F)F [1-butyl-3-methylimidazolium hexafluorophosphate]
[1]
Conditions | mass density [kg/m3] | viscosity [mPa·s]
283.15 K | 1380.34 | 802.09
288.15 K | 1376.06 | 552.57
293.15 K | 1371.8 | 389.81
298.15 K | 1367.53 | 282.24
303.15 K | 1363.28 | 209.25
308.15 K | 1359.19 | 159.15
313.15 K | 1355.09 | 123.38
318.15 K | 1350.98 | 97.78
323.15 K | 1346.87 | 78.77
328.15 K | 1342.78 | 61.34
333.15 K | 1338.7 | 50.38
343.15 K | 1330.56 | 35.25
353.15 K | 1322.47 | 25.76

CCCCn1cc[n+](C)c1.F[P-](F)(F)(F)(F)F [1-butyl-3-methylimidazolium hexafluorophosphate] + C=C(C)C(=O)OC
[2]
Conditions | mass density [kg/m3] | viscosity [mPa·s]
283.15 K | 1380.34 | 802.09
288.15 K | 1376.06 | 552.57
293.15 K | 1371.8 | 389.81
298.15 K | 1367.53 | 282.24
303.15 K | 1363.28 | 209.25
308.15 K | 1359.19 | 159.15
313.15 K | 1355.09 | 123.38
318.15 K | 1350.98 | 97.78
323.15 K | 1346.87 | 78.77
328.15 K | 1342.78 | 61.34
333.15 K | 1338.7 | 50.38
343.15 K | 1330.56 | 35.25
353.15 K | 1322.47 | 25.76

C=C(C)C(=O)OC [methyl methacrylate]
[1]
Conditions | mass density [kg/m3] | viscosity [mPa·s]
283.15 K | 954.802 | 0.6808
288.15 K | 949.097 | 0.6337
293.15 K | 943.365 | 0.5899
298.15 K | 937.615 | 0.554
303.15 K | 931.837 | 0.5248
308.15 K | 926.032 | 0.4956
313.15 K | 920.185 | 0.4719
318.15 K | 914.317 | 0.4497
323.15 K | 908.405 | 0.4294
328.15 K | 902.468 | 0.41
333.15 K | 896.479 | 0.3938
343.15 K | 884.418 | 0.3636
353.15 K | 872.129 | 0.3398
